Measurements from US8586755B2, “Substituted nicotinamides as KCNQ2/3 modulators” (Grünenthal GmbH, priority 2009, dated 2013).

Biological target: T1, KCNQ2/3 channels (Homo sapiens, UniProt O43525+O43526)
T1 construct: expressed in transfected cells
Assay: Fluorescence assay using a voltage sensitive dye (fluorimetry)
Type: cell-based
Settings: CHO-K1 cells expressing KCNQ2/3 channels; for EC50: agonistic activity; for Emax / Fluorimetry % efficacy (retigabine 50 μM = 100%): retigabine 50 μM = 100%; for Emax: read-out: Fluorimetry % efficacy (retigabine 50 μM = 100%)
Method in brief: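 CHO-K1 cells expressing human KCNQ2/3, loaded 45 min with red membrane-potential dye in ES buffer pH 7.4 (1 mM KCl), compound 30 min at room temperature. Fluorescence (525/560 nm) read before (F1) and at peak after KCl to 92 mM final (F2); agonism from F2/F1 change, EC50 fitted.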

| EC50 | Emax | Fluorimetry % efficacy (retigabine 50 μM = 100%) | Structure (SMILES) |
| --- | --- | --- | --- |
| 12800 nM | 86% | – | O=C(NCCCn1ccnn1)c1cccnc1SCCCc1ccc(F)cc1 [compound 141, 2-[3-(4-Fluorophenyl)-propylsulfanyl]-N-[3-(1H-[1,2,3]triazol-1-yl)-propyl]-pyridine-3-carboxylic acid amide] |
| 1510 nM | – | 175% | O=C(NCc1ccccn1)c1cccnc1SCCCc1ccc(F)cc1 [compound 143] |
| 8830 nM | 87% | – | O=C(NCCO)c1cccnc1SCCC(F)(F)c1ccc(F)cc1 [compound 211, 2-[[3,3-Difluoro-3-(4-fluorophenyl)-propyl]sulfanyl]-N-(2-hydroxy-ethyl)-pyridine-3-carboxylic acid amide] |
| – | – | 34% | Cc1ccnc(SCCCc2ccc(F)cc2)c1C(=O)NCc1cccs1 [compound 147] |
| 40 nM | 128% | – | CC(CCc1cccc(F)c1)Sc1ncccc1C(=O)NCc1ccc(F)cc1 (stereo not drawn) [compound 201, N-[(4-Fluorophenyl)-methyl]-2-[[3-(3-fluorophenyl)-1-methyl-propyl]sulfanyl]-pyridine-3-carboxylic acid amide] |
| 1250 nM | 155% | – | C[C@H](CCc1ccccc1)Sc1ncccc1C(=O)NCCC(C)(C)C [compound 153, N-(3,3-Dimethyl-butyl)-2-[[(1R)-1-methyl-3-phenyl-propyl]sulfanyl]-pyridine-3-carboxylic acid amide] |
| 40 nM | 230% | – | CC(C)CCNC(=O)c1cccnc1SC(C)CCc1ccc(F)c(F)c1 (stereo not drawn) [compound 200, 2-[[3-(3,4-Difluoro-phenyl)-1-methyl-propyl]sulfanyl]-N-(3-methyl-butyl)-pyridine-3-carboxylic acid amide] |
| 3140 nM | 154% | – | O=C(NCCCn1cccn1)c1cccnc1SCCCc1ccc(F)cc1 [compound 135, 2-[3-(4-Fluorophenyl)-propylsulfanyl]-N-[3-(1H-pyrazol-1-yl)-propyl]-pyridine-3-carboxylic acid amide] |
| 34 nM | 119% | – | O=C(NCc1ccc(F)cc1)c1cccnc1SCCCc1cccc(C(F)(F)F)c1 [compound 207, N-[(4-Fluorophenyl)-methyl]-2-[3-[3-(trifluoromethyl)phenyl]-propylsulfanyl]-pyridine-3-carboxylic acid amide] |
| 110 nM | 249% | – | O=C(NCC1C2CCC1CC2)c1cccnc1SCCCc1cccc(C(F)(F)F)c1 (stereo not drawn) [compound 156, N-(7-Bicyclo[2.2.1]heptanyl-methyl)-2-[3-[3-(trifluoromethyl)phenyl]-propylsulfanyl]-pyridine-3-carboxylic acid amide] |
| 287 nM | 161% | – | O=C(NCC1CCOCC1)c1cccnc1SCCC(F)(F)c1ccc(F)cc1 [compound 189, 2-[[3,3-Difluoro-3-(4-fluorophenyl)-propyl]sulfanyl]-N-(tetrahydro-pyran-4-yl-methyl)-pyridine-3-carboxylic acid amide] |
| 40 nM | 293% | – | O=C(NCC12CCC(CC1)C2)c1cccnc1SCCCc1ccc(F)cc1 [compound 206, N-(1-Bicyclo[2.2.1]heptanyl-methyl)-2-[3-(4-fluorophenyl)-propylsulfanyl]-pyridine-3-carboxylic acid amide] |
| 71 nM | 235% | – | CC(C)CCNC(=O)c1cccnc1SC(C)CCc1cccc(F)c1 (stereo not drawn) [compound 202, 2-[[3-(3-Fluorophenyl)-1-methyl-propyl]sulfanyl]-N-(3-methyl-butyl)-pyridine-3-carboxylic acid amide] |

Second part, the compound before the results:

| Structure (SMILES) | EC50 | Emax | Fluorimetry % efficacy (retigabine 50 μM = 100%) |
| --- | --- | --- | --- |
| COc1cccc(CCCSc2ncccc2C(=O)NCC2CC3CCC2C3)c1 (stereo not drawn) [compound 70, N-(5-Bicyclo[2.2.1]heptanyl-methyl)-2-[3-(3-methoxyphenyl)-propylsulfanyl]-pyridine-3-carboxylic acid amide] | 244 nM | 308% | – |
| Cc1ccc(CCCSc2ncccc2C(=O)NCc2cccs2)cc1C(F)(F)F [compound 113, 2-[3-[4-Methyl-3-(trifluoromethyl)-phenyl]-propylsulfanyl]-N-(thiophen-2-yl-methyl)-pyridine-3-carboxylic acid amide] | 5200 nM | 90% | – |
| O=C(NCc1ccc(Cl)s1)c1cccnc1SCCCc1ccc(F)cc1 [compound 37, N-[(5-Chloro-thiophen-2-yl)-methyl]-2-[3-(4-fluorophenyl)-propylsulfanyl]-pyridine-3-carboxylic acid amide] | 74 nM | 89% | – |
| O=C(NCC1CC2CCC1C2)c1cccnc1SCCC(F)(F)c1ccc(F)cc1 (stereo not drawn) [compound 115] | 42 nM | – | 213% |
| O=C(NCc1ccc2c(c1)OCO2)c1cccnc1SCCCc1ccc(F)cc1 [compound 121, N-(1,3-Benzodioxol-5-yl-methyl)-2-[3-(4-fluorophenyl)-propylsulfanyl]-pyridine-3-carboxylic acid amide] | 256 nM | 99% | – |
| O=C(NCc1cccs1)c1cccnc1SC1CCCC(c2ccccc2)C1 (stereo not drawn) [compound 114, 2-[(3-Phenyl-cyclohexyl)sulfanyl]-N-(thiophen-2-yl-methyl)-pyridine-3-carboxylic acid amide] | 553 nM | 128% | – |
| O=C(NCCCc1ccncc1)c1cccnc1SCCCc1ccc(F)cc1 [compound 95, 2-[3-(4-Fluorophenyl)-propylsulfanyl]-N-(3-pyridine-4-yl-propyl)-pyridine-3-carboxylic acid amide] | 2060 nM | 147% | – |
| O=C(NCc1cccs1)c1cccnc1SCCCCc1ccc(F)c(F)c1 [compound 110, 2-[4-(3,4-Difluoro-phenyl)-butylsulfanyl]-N-(thiophen-2-yl-methyl)-pyridine-3-carboxylic acid amide] | 462 nM | 110% | – |
| O=C(NCCCc1cccnc1)c1cccnc1SCCCc1ccc(F)cc1 [compound 94, 2-[3-(4-Fluorophenyl)-propylsulfanyl]-N-(3-pyridine-3-yl-propyl)-pyridine-3-carboxylic acid amide] | 2210 nM | 181% | – |
| O=C(NCC1CC2CCC1C2)c1cccnc1SCCCc1cc(F)c(F)cc1F (stereo not drawn) [compound 92, N-(5-Bicyclo[2.2.1]heptanyl-methyl)-2-[3-(2,4,5-trifluoro-phenyl)-propylsulfanyl]-pyridine-3-carboxylic acid amide] | 138 nM | 270% | – |
| O=C(NCc1cccs1)c1cccnc1SCCCc1cccnc1 [compound 98, 2-(3-Pyridin-3-yl-propylsulfanyl)-N-(thiophen-2-yl-methyl)-pyridine-3-carboxylic acid amide] | – | 29% | – |
| CC(CSc1ncccc1C(=O)NCc1cccs1)Sc1cccc(C(F)(F)F)c1 (stereo not drawn) [compound 20, N-(Thiophen-2-yl-methyl)-2-[2-[[3-(trifluoromethyl)phenyl]sulfanyl]-propylsulfanyl]-pyridine-3-carboxylic acid amide] | 49 nM | 174% | – |
| O=C(NCc1cccnc1)c1cccnc1SCCCc1ccc(F)cc1 [compound 127, 2-[3-(4-Fluorophenyl)-propylsulfanyl]-N-(pyridin-3-yl-methyl)-pyridine-3-carboxylic acid amide] | 1860 nM | 147% | – |
| COc1ccc(CNC(=O)c2cccnc2SCCCc2ccc(F)cc2)cc1 [compound 57, 2-[3-(4-Fluorophenyl)-propylsulfanyl]-N-[(4-methoxyphenyl)-methyl]-pyridine-3-carboxylic acid amide] | 252 nM | 83% | – |
| O=C(NCc1cccs1)c1cccnc1SCCCc1ccsc1 [compound 106, N-(Thiophen-2-yl-methyl)-2-(3-thiophen-3-yl-propylsulfanyl)-pyridine-3-carboxylic acid amide] | 191 nM | 95% | – |
| CC(C)(C)C(=O)CNC(=O)c1cccnc1SCCCc1ccc(F)cc1 [compound 125, N-(3,3-Dimethyl-2-oxo-butyl)-2-[3-(4-fluorophenyl)-propylsulfanyl]-pyridine-3-carboxylic acid amide] | 1400 nM | 99% | – |
| O=C(NCc1cccs1)c1cccnc1SCCCc1ccccc1 [compound 1] | 170 nM | – | 132% |
| O=C(NCC1CC2CCC1C2)c1cccnc1SCCCc1ccc(F)c(F)c1 (stereo not drawn) [compound 60, N-(5-Bicyclo[2.2.1]heptanyl-methyl)-2-[3-(3,4-difluoro-phenyl)-propylsulfanyl]-pyridine-3-carboxylic acid amide] | 263 nM | 236% | – |
| O=C(NCC1CCCCC1)c1cccnc1CCCCc1ccccc1 [compound 9, N-(Cyclohexyl-methyl)-2-(4-phenyl-butyl)-pyridine-3-carboxylic acid amide] | 1350 nM | 157% | – |
| O=C(NCc1cccs1)c1cccnc1SCCCc1ccncc1 [compound 101, 2-(3-Pyridin-4-yl-propylsulfanyl)-N-(thiophen-2-yl-methyl)-pyridine-3-carboxylic acid amide] | – | 38% | – |
| O=C(NCC1CC2CCC1C2)c1cccnc1CCCSc1ccc(F)cc1 (stereo not drawn) [compound 30, N-(5-Bicyclo[2.2.1]heptanyl-methyl)-2-[3-[(4-fluorophenyl)sulfanyl]-propyl]-pyridine-3-carboxylic acid amide] | 630 nM | 261% | – |
| CC(CSc1ncccc1C(=O)NCc1cccs1)Sc1ccc(F)cc1 (stereo not drawn) [compound 19, 2-[2-[(4-Fluorophenyl)sulfanyl]-propylsulfanyl]-N-(thiophen-2-yl-methyl)-pyridine-3-carboxylic acid amide] | 37 nM | 171% | – |
| O=C(NCc1cccs1)c1cccnc1CCCCc1cccc(C(F)(F)F)c1 [compound 21] | 364 nM | – | 126% |
